Data as given in US9040528B2, “Chemical compounds 542” (AstraZeneca AB, priority 2008, dated 2015).

Biological target: Escherichia coli DNA gyrase A/B tetramer (Escherichia coli (strain K12), UniProt P0AES4+P0AES6)
Experiment: DNA gyrase supercoiling activity fluorescence polarisation assay
Type: biochemical
Details: not given
Description: DNA Gyrase Supercoiling Activity Fluorescence Polarisation Assay
The supercoiling reactions may be quenched by the addition of 10 microliters/well of 40 nM oligodeoxynucleotide probe in 3× triplex-forming buffer consisting of 150 mM NaCl, and 150 mM sodium acetate at pH 3.5. The oligodeoxynucleotide probe may be 5′-BODIPY-FL-labeled […]. After 60 minutes, the fluorescence anisotropy of the BODIPY-FL may be measured in a Tecan Ultra plate reader, using 485 nm excitation and 535 nm emission filters equipped with polarizers. The IC50 may be determined by nonlinear regression using two control reactions. The first contains no test compound but 0.8% DMSO (100% activity) while the second control reaction contains 5 μM Ciprofloxacin and 0.8% DMSO (0% activity).

SMILES | IC50 [µM]
C[C@@H]1CN2c3c(cc4c(-n5cncn5)noc4c3F)CC3(C(=O)NC(=O)NC3=O)[C@H]2[C@H](C)O1 (racemic) [Example 53, (2R,4S,4 aS)-rel-11-fluoro-2,4-dimethyl-8-(1H-1,2,4-triazol-1-yl)-1,2,4,4a-tetrahydro-2′H,6H-spiro[1,4-oxazino[4,3-a][1,2]oxazolo[4,5-g]quinoline-5,5′-pyrimidine]-2′,4′,6′(1′H,3′H)-trione] | 2.8
Cc1nnsc1-c1noc2c(F)c3c(cc12)CC1(C(=O)NC(=O)NC1=O)[C@H]1[C@H](C)O[C@H](C)CN31 (racemic) [Example 72, (2R,4S,4aS)-rel-11-fluoro-2,4-dimethyl-8-(4-methyl-1,2,3-thiadiazol-5-yl)-1,2,4,4a-tetrahydro-2′H,6H-spiro[1,4-oxazino[4,3-a][1,2]oxazolo[4,5-g]quinoline-5,5′-pyrimidine]-2′,4′,6′(1′H,3′H)-trione] | 0.9
Cc1noc2c(F)c3c(cc12)CC1(C(=O)NC(=O)NC1=O)[C@H]1[C@H](C)O[C@H](C)CN31 (relative stereo) [Example 2, (2R,4S,4aS)-rel-11-fluoro-2,4,8-trimethyl-1,2,4,4a-tetrahydro-2′H,6H-spiro[isoxazolo[4,5-g][1,4]oxazino[4,3-a]quinoline-5,5′-pyrimidine]-2′,4′,6′(1′H,3′H)-trione] | 0.4

Same assay, conditions: 5 nM enzyme, relaxed plasmid, 0.3 mM ATP, ambient temperature; read-out: E. coli DNA gyrase supercoiling IC50

SMILES | IC50 [µM]
C[C@@H]1CN2c3c(cc4c(NCc5ccccc5)noc4c3F)CC3(C(=O)NC(=O)NC3=O)[C@H]2[C@H](C)O1 (racemic) [Example 9, (2R,4S,4 aS)-rel-8-(benzylamino)-11-fluoro-2,4-dimethyl-1,2,4,4a-tetrahydro-2′H,6H-spiro[1,4-oxazino[4,3-a][1,2]oxazolo[4,5-g]quinoline-5,5′-pyrimidine]-2′,4′,6′(1′H,3′H)-trione] | 1.7
C[C@@H]1CN2c3c(cc4c(NCc5ccccn5)noc4c3F)CC3(C(=O)NC(=O)NC3=O)[C@H]2[C@H](C)O1 (racemic) [Example 14, (2R,4 S,4aS)-rel-11-fluoro-2,4-dimethyl-8-[(pyridin-2-ylmethyl)amino]-1,2,4,4a-tetrahydro-2′H,6H-spiro[1,4-oxazino[4,3-a][1,2]oxazolo[4,5-g]quinoline-5,5′-pyrimidine]-2′,4′,6′(1′H,3′H)-trione] | 2
C[C@@H]1CN2c3c(cc4c(-n5cc(I)cn5)noc4c3F)CC3(C(=O)NC(=O)NC3=O)[C@H]2[C@H](C)O1 (racemic) [Example 36, (2R,4S,4 aS)-rel-11-fluoro-8-(4-iodo-1H-pyrazol-1-yl)-2,4-dimethyl-1,2,4,4a-tetrahydro-2′H,6H-spiro[1,4-oxazino[4,3-a][1,2]oxazolo[4,5-g]quinoline-5,5′-pyrimidine]-2′,4′,6′(1′H,3′H)-trione] | 2.1
C[C@@H]1CN2c3c(cc4c(C5CC5)noc4c3Cl)CC3(C(=O)NC(=O)NC3=O)[C@H]2[C@H](C)O1 (racemic) [Example 39, (2R,4S,4 aS)-rel-11-chloro-8-cyclopropyl-2,4-dimethyl-1,2,4,4a-tetrahydro-2′H,6H-spiro[1,4-oxazino[4,3-a][1,2]oxazolo[4,5-g]quinoline-5,5′-pyrimidine]-2′,4′,6′(1′H,3′H)-trione] | 0.6
C[C@@H]1CN2c3c(cc4c(-c5ncccn5)noc4c3Cl)CC3(C(=O)NC(=O)NC3=O)[C@H]2[C@H](C)O1 (racemic) [Example 42, (2R,4S,4 aS)-rel-11-chloro-2,4-dimethyl-8-(pyrimidin-2-yl)-1,2,4,4a-tetrahydro-2′H,6H-spiro[1,4-oxazino[4,3-a][1,2]oxazolo[4,5-g]quinoline-5,5′-pyrimidine]-2′,4′,6′(1′H,3′H)-trione] | 1.2
C[C@@H]1CN2c3c(cc4c(-c5cncnc5)noc4c3Cl)CC3(C(=O)NC(=O)NC3=O)[C@H]2[C@H](C)O1 (racemic) [Example 44, (2R,4S,4 aS)-rel-11-chloro-2,4-dimethyl-8-(pyrimidin-5-yl)-1,2,4,4a-tetrahydro-2′H,6H-spiro[1,4-oxazino[4,3-a][1,2]oxazolo[4,5-g]quinoline-5,5′-pyrimidine]-2′,4′,6′(1′H,3′H)-trione] | 1
C[C@@H]1CN2c3c(cc4c(-n5nccn5)noc4c3F)CC3(C(=O)NC(=O)NC3=O)[C@H]2[C@H](C)O1 (racemic) [Example 56, (2R,4S,4 aS)-rel-11-fluoro-2,4-dimethyl-8-(2H-1,2,3-triazol-2-yl)-1,2,4,4a-tetrahydro-2′H,6H-spiro[1,4-oxazino[4,3-a][1,2]oxazolo[4,5-g]quinoline-5,5′-pyrimidine]-2′,4′,6′(1′H,3′H)-trione] | 0.7
C[C@@H]1CN2c3c(cc4c(-c5nc(C(=O)N(C)C)cs5)noc4c3F)CC3(C(=O)NC(=O)NC3=O)[C@H]2[C@H](C)O1 (racemic) [Example 86, 2-[(2R,4S,4 aS)-rel-11-fluoro-2,4-dimethyl-2′,4′,6′-trioxo-1,1′,2,3′,4,4′,4a,6′-octahydro-2′H,6H-spiro[1,4-oxazino[4,3-a][1,2]oxazolo[4,5-g]quinoline-5,5′-pyrimidin]-8-yl]-N,N-dimethyl-1,3-thiazole-4-carboxamide] | 5
C[C@@H]1CN2c3c(cc4c(C(F)(F)F)noc4c3F)CC3(C(=O)NC(=O)NC3=O)[C@H]2[C@H](C)O1 (racemic) [Example 92, (2R,4 S,4 aS)-rel-11-fluoro-2,4-dimethyl-8-(trifluoromethyl)-2,4,4a,6-tetrahydro-1H,1′H-spiro[isoxazolo[4,5-g][1,4]oxazino[4,3-a]quinoline-5,5′-pyrimidine]-2′,4′,6′(3′H)-trione] | 1.4
C[C@@H]1CN2c3c(cc4c(C(F)F)noc4c3F)CC3(C(=O)NC(=O)NC3=O)[C@H]2[C@H](C)O1 (racemic) [Example 93, (2R,4S,4 aS)-rel-8-(difluoromethyl)-11-fluoro-2,4-dimethyl-2,4,4a,6-tetrahydro-1H,1′H-spiro[isoxazolo[4,5-g][1,4]oxazino[4,3-a]quinoline-5,5′-pyrimidine]-2′,4′,6′(3′H)-trione] | 0.7
C[C@@H]1CN2c3c(cc4c(C(=O)NCC(F)F)noc4c3F)CC3(C(=O)NC(=O)NC3=O)[C@H]2[C@H](C)O1 (racemic) [Example 94, (2R,4 S,4 aS)-rel-N-(2,2-difluoroethyl)-11-fluoro-2,4-dimethyl-2′,4′,6′-trioxo-2,2′,3′,4,4a,4′,6,6′-octahydro-1H,1′H-spiro[isoxazolo[4,5-g][1,4]oxazino[4,3-a]quinoline-5,5′-pyrimidine]-8-carboxamide] | 1.6
C[C@@H]1CN2c3c(cc4c(-c5cnccn5)noc4c3Cl)CC3(C(=O)NC(=O)NC3=O)[C@H]2[C@H](C)O1 (racemic) [Example 120, (2R,4 S,4 aS)-rel-11-chloro-2,4-dimethyl-8-(pyrazin-2-yl)-2,4,4a,6-tetrahydro-1H,1′H-spiro[isoxazolo[4,5-g][1,4]oxazino[4,3-a]quinoline-5,5′-pyrimidine]-2′,4′,6′(3′H)-trione] | 0.2
CCNC(=O)c1noc2c(F)c3c(cc12)CC1(C(=O)NC(=O)NC1=O)[C@H]1[C@H](C)O[C@H](C)CN31 (racemic) [Example 138, (2R,4 S,4 aS)-rel-N-ethyl-11-fluoro-2,4-dimethyl-2′,4′,6′-trioxo-2,2′,3′,4,4a,4′,6,6′-octahydro-1H,1′H-spiro[isoxazolo[4,5-g][1,4]oxazino[4,3-a]quinoline-5,5′-pyrimidine]-8-carboxamide] | 1.7
C[C@@H]1CN2c3c(cc4c(C(=O)N5CCC(F)(F)C5)noc4c3F)CC3(C(=O)NC(=O)NC3=O)[C@H]2[C@H](C)O1 (racemic) [Example 158, (2R,4 S,4 aS)-rel-8-(3,3-difluoropyrrolidine-1-carbonyl)-11-fluoro-2,4-dimethyl-2,4,4a,6-tetrahydro-1H,1′H-spiro[isoxazolo[4,5-g][1,4]oxazino[4,3-a]quinoline-5,5′-pyrimidine]-2′,4′,6′(3′H)-trione] | 1.4
C[C@@H]1CN2c3c(cc4c(C(=O)NCc5ccnn5C)noc4c3F)CC3(C(=O)NC(=O)NC3=O)[C@H]2[C@H](C)O1 (racemic) [Example 162, (2R,4 S,4 aS)-rel-11-fluoro-2,4-dimethyl-N-((1-methyl-1H-pyrazol-5-yl)methyl)-2′,4′,6′-trioxo-2,2′,3′,4,4a,4′,6,6′-octahydro-1H,1′H-spiro[isoxazolo[4,5-g][1,4]oxazino[4,3-a]quinoline-5,5′-pyrimidine]-8-carboxamide] | 2.1
C[C@@H]1CN2c3c(cc4c(N)noc4c3F)CC3(C(=O)NC(=O)NC3=O)[C@H]2[C@H](C)O1 (relative stereo) [Example 1, (2R,4S,4aS)-rel-8-amino-11-fluoro-2,4-dimethyl-1,2,4,4a-tetrahydro-2′H,6H-spiro[isoxazolo[4,5-g][1,4]oxazino[4,3-a]quinoline-5,5′-pyrimidine]-2′,4′,6′(1′H,3′H)-trione] | 0.5
C[C@@H]1CN2c3c(cc4c(-c5ccccc5)noc4c3F)CC3(C(=O)NC(=O)NC3=O)[C@H]2[C@H](C)O1 (relative stereo) [Example 3, (2R,4S,4aS)-rel-11-fluoro-2,4-dimethyl-8-phenyl-1,2,4,4a-tetrahydro-2′H,6H-spiro[isoxazolo[4,5-g][1,4]oxazino[4,3-a]quinoline-5,5′-pyrimidine]-2′,4′,6′(1′H,3′H)-trione] | 0.4
C[C@@H]1CN2c3c(cc4c(C5CC5)noc4c3F)CC3(C(=O)NC(=O)NC3=O)[C@H]2[C@H](C)O1 (relative stereo) [Example 4, (2R,4S,4aS)-rel-8-cyclopropyl-11-fluoro-2,4-dimethyl-1,2,4,4a-tetrahydro-2′H,6H-spiro[isoxazolo[4,5-g][1,4]oxazino[4,3-a]quinoline-5,5′-pyrimidine]-2′,4′,6′(1′H,3′H)-trione] | 0.3
